Data published in patent US6399542B1, “Alkoxyimino-substituted bicyclic compounds compositions containing the same and method of making such compounds” (Agro-Kanesho Co., Ltd., priority 1997, dated 2002).
Read-outs that look alike come from different tables or passages of the source.

Tests used:
Erysiphe graminis = assay: Effects on Barley powdery mildew (preventive spray test); format: in vivo; settings: lesions counted seven days after inoculation
Puccinia recondita = assay: Effect on Wheat brown rust (preventive spray test); format: in vivo; settings: 7 days after inoculation
Botrytis cinerea = assay: Effect on Cucumber gray mold (cotyledon paper disc test); format: in vivo; settings: 3 days after inoculation
Phytophthora infestans = format: in vivo; settings: Tomato late blight, 5 days after inoculation
[1] = test system: Psecidoperonospora cubensis; assay: Effect on Cucumber downy mildew (preventive spray test); format: in vivo; settings: 7 days after inoculation
Rhizoctonia solani = assay: Effect on Rice sheath blight (preventive spray test); settings: 10 days after inoculation
Description: An emulsion of a compound of the present invention prepared in Preparation Example 2 was diluted with water and uniformly sprayed on 5 rice plant seedlings (variety: Koshihikari) in 4.5-leaf stage in each plastic pot having a diameter of 6 cm, with a spray gun. One day after the spraying, the seedlings were bundled at the second sheath with a string. Colonies of Rhizoctonia solani previously cultured in PSA culture medium were bored with a cork borer to obtain pieces having a diameter of 4 mm. The piece was put in the bundle, and kept in a high-humidity room at 25° C. until the examination. Ten days after the inoculation, the degree of the disease was examined, and the preventive rate (effect of inhibiting the disease) was calculated on the basis of the following standard:
Preventive rate=[1-D′/C′]×100
C′: Severity in untreated section
D′: Severity in treated section.

Pyricularia oryzae = format: in vivo; settings: Rice blast, 7 days after inoculation
Chochliobolus miyabeanus = assay: Effect on Rice brown spot (preventive spray test); format: in vivo; settings: 7 days after inoculation
[2] = conc. of active ingredient 20 ppm
[3] = conc. of active ingredient 100 ppm
[4] = conc. of active ingredient 4 ppm

Compound	Preventive rate (%) (Erysiphe graminis; [2])	Preventive rate (%) (Erysiphe graminis; [3])	Preventive rate (%) (Puccinia recondita; [2])	Preventive rate (%) (Puccinia recondita; [3])	Preventive rate (%) (Botrytis cinerea; [2])	Preventive rate (%) (Botrytis cinerea; [3])	Preventive rate (%) (Phytophthora infestans; [2])	Preventive rate (%) (Phytophthora infestans; [3])	Preventive rate (%) (Puccinia recondita; [4])	Preventive rate (%) [1, 2] [%]	Preventive rate (%) [1, 3] [%]	Preventive rate (%) (Rhizoctonia solani; [2])	Preventive rate (%) (Rhizoctonia solani; [3])	Preventive rate (%) (Erysiphe graminis; [4])	Preventive rate (%) [1, 4] [%]	Preventive rate (%) (Pyricularia oryzae; [2])	Preventive rate (%) (Pyricularia oryzae; [3])	Preventive rate (%) (Phytophthora infestans; [4])	Preventive rate (%) (Chochliobolus miyabeanus; [2])	Preventive rate (%) (Chochliobolus miyabeanus; [3])
CNC(=O)C(OC)c1ccccc1COc1ccc2c(c1)OCC2=NOC (racemic) [a-11]	88	100	88	100	40	87	–	–	–	–	–	–	–	–	–	–	–	–	–	–
CON=C1COc2c1ccc(OCc1ccccc1/C(=N\OC)C(=O)OC)c2C [a-15]	–	–	96	100	73	96	81	94	96	–	–	–	–	–	–	–	–	–	–	–
CON=C1COc2cc(OCc3ccccc3/C(=N\OC)C(=O)OC)c(C)cc21 [a-26]	–	–	100	100	72	87	81	100	100	100	100	–	–	–	–	–	–	–	–	–
CCON=C1COc2c1ccc(OCc1ccccc1/C(=N\OC)C(=O)OC)c2C [a-35]	100	100	–	–	–	–	–	–	–	–	–	80	84	98	–	–	–	–	–	–
CNC(=O)/C(=N/OC)c1ccccc1COc1ccc2c(c1)OCC2=NOC(C)C [a-40]	–	–	97	100	100	100	–	–	–	97	100	–	–	–	–	–	–	–	–	–
CNC(=O)/C(=N/OC)c1ccccc1COc1ccc2c(c1)OCC2=NOC/C=C/Cl [a-63]	100	100	–	–	100	100	–	–	–	100	100	–	–	99	–	–	–	–	–	–
C#CCON=C1COc2c1ccc(OCc1ccccc1/C(=N\OC)C(=O)NC)c2C [a-71]	100	100	100	100	100	100	–	–	100	100	100	–	–	–	100	89	91	–	–	–
CON=C(C(=O)OC)c1ccccc1COc1ccc2c(c1C)OCCC2=NOC [c-15]	100	100	100	100	75	77	94	100	–	100	100	–	–	100	81	80	100	84	97	100
CNC(=O)C(=NOC)c1ccccc1COc1ccc2c(c1C)OCCC2=NOC [c-16]	100	100	100	100	49	60	100	100	–	–	–	–	–	–	–	91	100	84	–	–
CNC(=O)C(=NOC)c1ccccc1COc1ccc2c(c1C)OCCC2=NOCc1c(F)c(F)c(F)c(F)c1F [c-83]	96	100	100	100	–	–	–	–	95	–	–	79	81	–	–	–	–	–	–	–
